# Laboratory results published in publication PMC2857584 (Science (New York, N.Y.), 2009).
# Target: T1, SepSecS (Homo sapiens, UniProt Q9HD40)
# T1 sequence (Q9HD40 1-501): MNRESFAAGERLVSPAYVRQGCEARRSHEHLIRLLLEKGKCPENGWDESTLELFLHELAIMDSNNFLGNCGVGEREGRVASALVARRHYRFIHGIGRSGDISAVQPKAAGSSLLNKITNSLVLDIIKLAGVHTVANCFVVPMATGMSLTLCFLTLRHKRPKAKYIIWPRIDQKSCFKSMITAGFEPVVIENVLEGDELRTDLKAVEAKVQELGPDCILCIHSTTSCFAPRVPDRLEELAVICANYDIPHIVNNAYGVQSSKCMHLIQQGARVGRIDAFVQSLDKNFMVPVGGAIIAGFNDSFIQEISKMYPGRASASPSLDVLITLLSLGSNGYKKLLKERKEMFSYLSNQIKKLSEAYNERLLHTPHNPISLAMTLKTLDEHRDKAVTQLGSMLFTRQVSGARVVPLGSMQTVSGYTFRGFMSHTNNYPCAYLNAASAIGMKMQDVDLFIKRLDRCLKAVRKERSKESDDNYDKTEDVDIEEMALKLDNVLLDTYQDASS
# Assay: X-ray crystallography, […] A
# Format: binding
# Details: covalent; Schiff base (internal aldimine) with Lys284
smiles,measurement,value
"Cc1ncc(COP(=O)(O)O)c(C=O)c1O [PLP, pyridoxal phosphate]","X-ray crystallography, 2.8 A",Each SepSecS monomer has a PLP cofactor covalently linked to the Nε-amino group
